Measurements as given in US20040024055A1, “Pharmaceutical composition containing the exract of saururus chinensis baill useful as an anticancer agent and a process for the preparation thereof” (priority 2000, published 2004).
Converted amounts (≈) assume the structure as drawn.

What was measured:
HS683 = assay: MTT analysis, anticancer activity; type: cell-based, human; conditions: 48 hr
293 = assay: MTT analysis, cytotoxicity against normal cell line; type: cell-based, human; conditions: 10 μg/ml sample
CPAE = assay: as above; type: cell-based, bovine; conditions: 10 μg/ml sample
ME-180 = assay: MTT analysis, anticancer activity; type: cell-based, human; conditions: 10 μg/ml sample
MCF-7 = assay: MTT analysis, anticancer activity; type: cell-based, human
HT-29 = assay: MTT analysis, anticancer activity; type: cell-based, human; conditions: 10 μg/ml sample
Hep-2 = assay: MTT analysis, anticancer activity; type: cell-based, human
HS-746T = assay: MTT analysis, anticancer activity; type: cell-based, human; conditions: 10 μg/ml sample
SK-OV-3 = assay: MTT analysis, anticancer activity; type: cell-based, human; conditions: 10 μg/ml sample
BT-549 = assay: MTT analysis, anticancer activity; type: cell-based, human; conditions: 10 μg/ml sample
KATO-III = assay: MTT analysis, anticancer activity; type: cell-based, human
SK-BR-3 = assay: MTT analysis, anticancer activity; type: cell-based, human; conditions: 48 hr
T98G = assay: MTT analysis, anticancer activity; type: cell-based, human; conditions: 48 hr
3T3-L1 = assay: MTT analysis, cytotoxicity against normal cell line; type: cell-based, mouse; conditions: 10 μg/ml sample
NCI-H69 = assay: MTT analysis, anticancer activity; type: cell-based, human; conditions: 10 μg/ml sample
[1] = test system: DU-145 prostate cancer cell line; assay: MTT analysis, anticancer activity; type: cell-based, human; conditions: 48 hr
Experimental: (§1) To be specific, SK-Hep-1 cell, which is liver cancer cell line, was added to 96-well microplate (Falcon, USA) with the concentration of 3×10^5 cells/ml by 100 μl per well. Each extracted and separated substance dissolved in DMSO was added to the well by 100 μl for the final concentration to be from 50 μg/ml to 0.0244 μg/ml, with 200 μl of final volume. Each cell was cultured for 48 hr in a culture medium of 37° C. and 5% CO2. After cultivation, 20 μl of phosphate buffer solution containing 5 mg/ml of MTT (3-[4,5-dimethylthiazol-2-yl]-2,5-diphenyltetrazoliumbromide, Sigma Co.) reagent was added to each well, and then cultured for 4 hr. After taking 100 μl of supernant from each culture medium, 100 μl of 0.04N hydrochloric acid-isopropanol was added. After letting alone overnight, absorbance was measured at 560 nm using automatic Eliza detector (Molecular Divices Corp., USA). Anticancer activity of each extracted and separated substance was calculated from the absorbance value by Equation 1 and was expressed in terms of cell.
(§2) Average Existence Rate(%)=(Absorbance of Treated Group)/(Absorbance of Control Group)×100

BT-20 = assay: MTT analysis, anticancer activity; type: cell-based, human; conditions: 48 hr
A431 = assay: MTT analysis, anticancer activity; type: cell-based, human; conditions: 48 hr
[2] = test system: SK-Hep-1 liver cancer cell line; assay: MTT analysis, anticancer activity; type: cell-based, human; conditions: for IC50 SK-Hep-1: 48 hr
Experimental: as §1, §2

HS-578T = assay: MTT analysis, anticancer activity; type: cell-based, human; conditions: 10 μg/ml sample
NIH-3T3 = assay: MTT analysis, cytotoxicity against normal cell line; type: cell-based, mouse; conditions: 10 μg/ml sample
HeLa = assay: MTT analysis, anticancer activity; type: cell-based, human; conditions: 48 hr
HS27 = assay: MTT analysis, cytotoxicity against normal cell line; type: cell-based, human; conditions: 10 μg/ml sample
HT1080 = assay: MTT analysis, anticancer activity; type: cell-based, human; conditions: 48 hr
Solubility = type: physicochemical
CHO = assay: MTT analysis, cytotoxicity against normal cell line; type: cell-based, Chinese hamster; conditions: 10 μg/ml sample
LoVo = assay: MTT analysis, anticancer activity; type: cell-based, human; conditions: 10 μg/ml sample
[3] = test system: PC-3 prostate cancer cell line; assay: MTT analysis, anticancer activity; type: cell-based, human; conditions: 48 hr
Experimental: as §1, §2

SK-MEL-28 = assay: MTT analysis, anticancer activity; type: cell-based, human; conditions: 48 hr
T-47D = assay: MTT analysis, anticancer activity; type: cell-based, human; conditions: 48 hr
SK-N-SH = assay: MTT analysis, anticancer activity; type: cell-based, human; conditions: 48 hr

| Structure (SMILES) | IC50 HS683 (HS683) [µg/mL] | Existence rate class, 293 (in IC50 table) 293 | Existence rate class, CPAE (in IC50 table) (CPAE) | Existence rate class, ME-180 (in IC50 table) (ME-180) | Existence rate class, HT-29 (in IC50 table) (HT-29) | Existence rate class, HS-746T (in IC50 table) (HS-746T) | Existence rate class, SK-OV-3 (in IC50 table) (SK-OV-3) | Existence rate class, BT-549 (in IC50 table) (BT-549) | IC50 SK-BR-3 (SK-BR-3) [µg/mL] | IC50 T98G (T98G) [µg/mL] | Existence rate class, 3T3-L1 (in IC50 table) (3T3-L1) | Existence rate class, NCI-H69 (in IC50 table) (NCI-H69) | IC50 DU-145 [1] [µg/mL] | IC50 BT-20 (BT-20) [µg/mL] | IC50 A431 (A431) [µg/mL] | IC50 SK-Hep-1 [2] [µg/mL] | Existence rate class, HS-578T (in IC50 table) (HS-578T) | Existence rate class, NIH-3T3 (in IC50 table) (NIH-3T3) | IC50 HeLa (HeLa) [µg/mL] | Existence rate class, HS27 (in IC50 table) (HS27) | also measured |
| --- | --- | --- | --- | --- | --- | --- | --- | --- | --- | --- | --- | --- | --- | --- | --- | --- | --- | --- | --- | --- | --- |
| COc1ccc(C(O)C(C)Oc2ccc(C3OC(c4ccc(OC(C)[C@@H](O)c5ccc(OC)c(OC)c5)c(OC)c4)C(C)C3C)cc2OC)cc1OC (single isomer, unassigned) [HNP-98701A, epi-manassantin A] | 0.5561 (≈ 0.759 µM) | *^a (Existence rate larger than 60% for 10 μg/ml sample) | * (Existence rate larger than 60% for 10 μg/ml sample) | * (Existence rate larger than 60% for 10 μg/ml sample) | * (Existence rate larger than 60% for 10 μg/ml sample) | * (Existence rate larger than 60% for 10 μg/ml sample) | N.E. (Not effective; existence rate larger than 90% for 10 μg/ml sample) | *^a (Existence rate larger than 60% for 10 μg/ml sample) | 0.1698 (≈ 0.232 µM) | 0.2470 (≈ 0.337 µM) | N.E.^b (Not effective; existence rate larger than 90% for 10 μg/ml sample) | * (Existence rate larger than 60% for 10 μg/ml sample) | 0.0537 (≈ 0.0733 µM) | 0.0996 (≈ 0.136 µM) | 0.4903 (≈ 0.669 µM) | 0.0795 (≈ 0.108 µM) | N.E.^b (Not effective; existence rate larger than 90% for 10 μg/ml sample) | N.E. (Not effective; existence rate larger than 90% for 10 μg/ml sample) | 0.4233 (≈ 0.578 µM) | N.E. (Not effective; existence rate larger than 90% for 10 μg/ml sample) | IC50 (MCF-7; Homo sapiens, MCF7, 48 h, read-out: IC50 MCF-7): > 10 µg/mL; IC50 (Hep-2; Homo sapiens, HEp-2, 48 h, read-out: IC50 Hep-2, MTT, 48 hr): 0.0406 µg/mL (≈ 0.0554 µM); IC50 (KATO-III; Homo sapiens, KATO III, 48 h, read-out: IC50 KATO-III, MTT, 48 hr): 0.617 µg/mL (≈ 0.842 µM); IC50 HT1080 (HT1080): 0.4267 µg/mL (≈ 0.582 µM); Solubility in methanol, ethanol, ethyl acetate, chloroform and dimethylsulfoxide (DMSO) (Solubility): highly soluble; Solubility in water, acetone, ether and hexane (Solubility): insoluble; Existence rate class, CHO (in IC50 table) (CHO): * (Existence rate larger than 60% for 10 μg/ml sample); Existence rate class, LoVo (in IC50 table) (LoVo): * (Existence rate larger than 60% for 10 μg/ml sample); IC50 PC-3 [3]: 0.1249 µg/mL (≈ 0.17 µM); IC50 SK-MEL-28 (SK-MEL-28): 0.2544 µg/mL (≈ 0.347 µM); IC50 T-47D (T-47D): 0.0400 µg/mL (≈ 0.0546 µM); IC50 SK-N-SH (SK-N-SH): 1.2849 µg/mL (≈ 1.75 µM) |
| COc1ccc(C(O)C(C)Oc2ccc(C3OC(c4ccc(OC(C)[C@@H](O)c5ccc(OC)c(OC)c5)c(OC)c4)C(C)C3C)cc2OC)cc1OC (single isomer, unassigned) [HNP-98701B] | 0.2325 (≈ 0.317 µM) | * (Existence rate larger than 60% for 10 μg/ml sample) | * (Existence rate larger than 60% for 10 μg/ml sample) | * (Existence rate larger than 60% for 10 μg/ml sample) | * (Existence rate larger than 60% for 10 μg/ml sample) | * (Existence rate larger than 60% for 10 μg/ml sample) | N.E. (Not effective; existence rate larger than 90% for 10 μg/ml sample) | * (Existence rate larger than 60% for 10 μg/ml sample) | 0.0866 (≈ 0.118 µM) | 0.1003 (≈ 0.137 µM) | N.E. (Not effective; existence rate larger than 90% for 10 μg/ml sample) | * (Existence rate larger than 60% for 10 μg/ml sample) | 0.0184 (≈ 0.0251 µM) | 0.0292 (≈ 0.0398 µM) | 0.2344 (≈ 0.32 µM) | 0.0388 (≈ 0.0529 µM) | N.E. (Not effective; existence rate larger than 90% for 10 μg/ml sample) | N.E. (Not effective; existence rate larger than 90% for 10 μg/ml sample) | 0.1680 (≈ 0.229 µM) | N.E. (Not effective; existence rate larger than 90% for 10 μg/ml sample) | IC50 MCF-7 (MCF-7; MTT, 48 hr): >10 µg/mL; IC50 Hep-2 (Hep-2; MTT, 48 hr): 0.0329 µg/mL (≈ 0.0449 µM); IC50 KATO-III (KATO-III; MTT, 48 hr): 0.4477 µg/mL (≈ 0.611 µM); IC50 HT1080 (HT1080): 0.1882 µg/mL (≈ 0.257 µM); Solubility in methanol, ethanol, ethyl acetate, chloroform and dimethylsulfoxide (DMSO) (Solubility): highly soluble; Solubility in water, acetone, ether and hexane (Solubility): insoluble; Existence rate class, CHO (in IC50 table) (CHO): * (Existence rate larger than 60% for 10 μg/ml sample); Existence rate class, LoVo (in IC50 table) (LoVo): * (Existence rate larger than 60% for 10 μg/ml sample); IC50 PC-3 [3]: 0.0695 µg/mL (≈ 0.0948 µM); IC50 SK-MEL-28 (SK-MEL-28): 0.1123 µg/mL (≈ 0.153 µM); IC50 T-47D (T-47D): 0.0167 µg/mL (≈ 0.0228 µM); IC50 SK-N-SH (SK-N-SH): 0.4314 µg/mL (≈ 0.589 µM) |
| O=c1[nH]cc(F)c(=O)[nH]1 [5-FU, 5-fluorouracil] |  |  |  |  |  |  |  |  |  |  |  |  |  |  |  |  |  |  |  |  | IC50 ([2]; Homo sapiens, SK-HEP1, 48 hr): > 50 µg/mL |
